Data reported in article PMC9583845, “Characterization of the chicken melanocortin 5 receptor and its potential role in regulating hepatic glucolipid metabolism” (Frontiers in Physiology, 2022).

Legend:
[1] = test system: CREB phosphorylation (cMC5R); assay: CREB phosphorylation, western blot, CHO cells expressing cMC5R; assay type: cell-based, chicken; conditions: 10 nM, 10 min; p-CREB normalized by total CREB; three independent experiments; Figure 2D
Procedure: To investigate whether the activation of cMC5R can enhance CREB phosphorylation, 100 ng of cMC5R expression plasmid, or an empty pcDNA3.1 (+) vector, was transfected into CHO cells cultured in a 24-well plate (Nunc) using jetPRIME transfection reagent (Polyplus Transfection). After 24 h transfection, ACTH (10 nM) or α-MSH (10 nM) was added to treat the cells for 10 min. Then the whole-cell lysates were used to examine the level of phosphorylated CREB using western blot. The level of total CREB protein was also examined and used as internal controls in each experiment. The phosphorylated CREB (p-CREB) and total CREB levels were quantified by densitometric analysis with ImageJ software. Relative optical densities of p-CREB normalized by CREB levels compared to the densities in the absence of ACTH (or α-MSH) are shown as relative p-CREB/CREB expression (fold changes).

chicken MC3R = test system: chicken MC3R; set-up: method as in Zhang et al., 2017; Thomas et al., 2018; conditions: ref Zhang et al., 2017; Thomas et al., 2018; cited from earlier work
[2] = test system: THRSPA mRNA, primary chicken hepatocytes; assay: THRSPA mRNA in primary chicken hepatocytes, RT-qPCR; assay type: cell-based; conditions: 6 h, N = 4, Figures 8D-F
Procedure: (§1) To evaluate the effect of ACTH1-39 on chicken liver, the chicken hepatocytes were prepared and maintained as a monolayer culture. Briefly, one-month-old male chicken hepatocytes were isolated by perfusion of a liver with Ca^2+-free KRB buffer to remove blood cells, and being digested with 0.25% collagenase-I for 10 min. Hepatocytes were obtained following filtering and washing using M199 medium. Then the hepatocytes were plated in a Corning CellBIND 48-well microplate (Corning, NY, cat. no.3338) with M199 medium containing 100 U/ml penicillin and […] streptomycin (Gibco), 5 μg/ml bovine insulin (Sigma), and 5% FBS at 37°C in a 5% CO2 atmosphere. To adhere to the wall, the cells were incubated on the 48-well plate for 4 h.
(§2) For quantitative real-time PCR, primary cultured chicken hepatocytes were treated with various concentrations of ACTH1-39 (or other composition) at 37°C for 6 h. The relative amount of mRNA was calculated using the comparative Ct method. Chicken β-actin gene was used as the reference gene. Amplification of specific transcripts was confirmed by analyzing the melting curve profile performed at the end of each run and by determining the size of the PCR products using agarose electrophoresis and ethidium bromide staining.

chicken MC4R = test system: chicken MC4R; set-up: method as in Zhang et al., 2017; Thomas et al., 2018; conditions: ref Zhang et al., 2017; Thomas et al., 2018; cited from earlier work
[3] = test system: primary chicken hepatocytes; assay: Triglyceride content, primary chicken hepatocytes; assay type: cell-based; conditions: 24 h, normalized to protein, Figure 7E
Procedure: as §1
For measurement of triglyceride content, after treated with ACTH1-39 for 24 h, hepatocytes were harvested and triglyceride (TG) content was analyzed using a commercial triglyceride content assay kit (Applygen, Beijing, China, catalog no. E1013). Results were normalized to the protein content of each sample, as determined using a BCA assay kit (Beyotime Institute of Biotechnology, China, catalog no. P0010).

[4] = test system: ACACA mRNA, primary chicken hepatocytes; assay: ACACA mRNA in primary chicken hepatocytes, RT-qPCR; assay type: cell-based; conditions: 0.1–100 nM, 6 h, N = 4, Figure 8G, listed as not decreased
Procedure: as §1, §2

[5] = test system: SCD mRNA, primary chicken hepatocytes; assay: SCD mRNA in primary chicken hepatocytes, RT-qPCR; assay type: cell-based; conditions: 0.1–100 nM, 6 h, N = 4, Figure 8I, listed as not decreased
Procedure: as §1, §2

chicken MC5R + MRAP2 = chicken MC5R + MRAP2 (Gallus gallus, UniProt O73671); assay: pGL3-CRE-luciferase reporter assay, CHO cells co-expressing MC5R and cMRAP2; assay type: cell-based; conditions: for effect of MRAP2 co-expression on sensitivity of MC5R: vs MC5R expressed alone
Procedure: The expression plasmids encoding MC5R, MRAP1 and MRAP2 were established by cloning their entire open reading frame (ORF) into the pcDNA3.1 (+) expression vector (Invitrogen).
The cells were then transfected with a mixture containing 700 ng pGL3-CRE-Luciferase reporter construct, 200 ng of receptor expression plasmid (or empty pcDNA3.1 vector as a negative control), 20 ng of pRL-TK construct (containing a Renilla luciferase gene, used as an internal control), and 2 μl jetPRIME transfection reagent (Polyplus Transfection, Illkirch, France) in 200 μL buffer. […] After removal of the medium from the 96-well plate, the cells were treated with 100 μl ligand-containing medium (or ligand-free medium) for 6 h. Finally, CHO cells were lysed with 1 × passive lysis buffer for luciferase assay (Promega) and the luciferase activity of the cell lysate was measured by a Multimode Microplate Reader (TriStar LB941, EG&G Berthold, Germany) according to the manufacturer’s instruction.
All statistical analysis was performed using GraphPad Prism 9 (Graph Pad Software Inc., San Diego, CA). The dose-response curves were constructed using nonlinear regression models. Student’s test was used to compare two groups, for more than two groups one-way ANOVA was performed followed by Dunnett’s test. To validate our results, all in-vitro experiments were repeated three times, and representative data are reported.

[6] = test system: primary chicken hepatocytes; assay: Lipid quantification by Oil Red O staining, primary cultured chicken hepatocytes; assay type: cell-based; conditions: 24 h; OD at 540 nm of isopropanol extract; N = 6; Figures 7C–D
Procedure: as §1
For lipid quantification by Oil Red O staining, after treatment with ACTH1-39 for 24 h, primary cultured chicken hepatocytes were washed with PBS and then fixed with 4% paraformaldehyde for 30 min. After PBS washing, the Oil Red O working solution was added to stain for 30 min. The stained lipids were then visualized by light microscopy after washing in PBS. To quantify the lipid content, the Oil Red O stained in the cells was extracted with isopropanol by measuring the OD value at 540 nm.

7-day chickens = conditions: continuous administration through mini-osmotic pumps, ref Puvadolpirod and Thaxton, 2000a; cited from earlier work
Text: Early studies have tested the effect of continuous ACTH administration in 7-day chickens ([Puvadolpirod and Thaxton, 2000a]; [Puvadolpirod and Thaxton, 2000b]; [Puvadolpirod and Thaxton, 2000c]; [Puvadolpirod and Thaxton, 2000d]; [Thaxton and Puvadolpirod, 2000]). […] A series of effects of ACT ...

Chain of chicken MC5R + MRAP2 (O73671 1-325): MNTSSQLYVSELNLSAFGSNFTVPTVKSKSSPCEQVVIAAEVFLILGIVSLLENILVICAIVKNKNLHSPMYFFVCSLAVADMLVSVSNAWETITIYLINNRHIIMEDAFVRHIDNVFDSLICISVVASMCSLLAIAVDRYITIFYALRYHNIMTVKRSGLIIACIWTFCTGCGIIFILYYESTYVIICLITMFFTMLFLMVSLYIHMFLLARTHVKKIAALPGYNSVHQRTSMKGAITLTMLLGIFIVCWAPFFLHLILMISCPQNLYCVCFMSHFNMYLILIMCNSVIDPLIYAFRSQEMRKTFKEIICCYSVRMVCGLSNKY
Chain of chicken MC5R + MRAP2 (A0A140B2F4 1-206 partner): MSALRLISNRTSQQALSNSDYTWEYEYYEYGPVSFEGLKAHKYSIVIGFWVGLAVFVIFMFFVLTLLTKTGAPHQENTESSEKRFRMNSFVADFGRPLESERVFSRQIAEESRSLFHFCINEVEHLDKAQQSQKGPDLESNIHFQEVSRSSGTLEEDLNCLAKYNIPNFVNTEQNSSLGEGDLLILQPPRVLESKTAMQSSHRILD

H-SYSMEHFRWGKPVGRKRRPIKVYPNGVDEESAESYPMEF-OH [ACTH1-39]
CREB phosphorylation [1]: significantly increased | activation of chicken MC3R (chicken MC3R): activated by both α-MSH and ACTH | THRSPA mRNA expression [2]: dose-dependently decreased | activation of chicken MC4R (chicken MC4R): activated by both α-MSH and ACTH | triglyceride (TG) contents [3]: decreased triglyceride contents | triglyceride (TG) contents ([3]; listed as ACTH): prominently decreased triglyceride (TG) contents | ACACA mRNA expression [4]: instead of ACACA, FASN and SCD | SCD mRNA expression [5]: instead of ACACA, FASN and SCD | EC50 (chicken MC5R + MRAP2; Table 1 / Figure 3, co-expressed with cMRAP2, 6 h, pGL3-CRE-luciferase, mean ± SEM of at least three independent experiments (figure: four replicates), ^a: significantly different from the parameter of MC5R, p < 0.01): 3.19 ± 1.09 nM | effect of MRAP2 co-expression on sensitivity of MC5R (chicken MC5R + MRAP2; α-MSH p < 0.01): did not affect the sensitivity of cMC5R to ACTH1-39 | effect of MRAP2 co-expression on sensitivity of MC5R (chicken MC5R + MRAP2; α-MSH p < 0.01, listed as ACTH): no effect on the sensitivity of chicken MC5R for ACTH | lipid contents (Oil Red O staining) [6]: lipid contents were lower in the ACTH-treat group in a dose-dependent manner | plasma corticosterone (7-day chickens): a fast rise in plasma corticosterone | plasma glucose and relative liver weight (7-day chickens): an increase in plasma glucose and relative liver weight
